# Patent publication US7423038B2, “Compounds and compositions as protein kinase inhibitors” (IRM LLC (a Delaware Limited Liability Corporation), priority 2004, dated 2008)
# pIC50: −log10 of the molar value.
# How the values were obtained:
# [1] = target: T1, G250E Bcr-abl (Homo sapiens, UniProt P00519, G250E); test: Antiproliferative effect on Ba/F3 cells expressing G250E Bcr-abl; assay type: cell-based; conditions: G250E mutant
# T1 construct: BCR (fusion partner); expressed in transfected cells; host or cells: Ba/F3 (murine pro-B cells); the other entry of the earlier key: BCR (P11274, Breakpoint cluster region protein)
# Method: (§1) 32D-p210 cells are plated into 96 well TC plates at a density of 15,000 cells per well. 50 μL of two fold serial dilutions of the test compound (Cmax is 40 μM) are added to each well (STI571 is included as a positive control). After incubating the cells for 48 hours at 37° C., 5% CO2, 15 μl, of MTT (Promega) is added to each well and the cells are incubated for an additional 5 hours. The optical density at 570 nm is quantified spectrophotometrically and IC50 values, the concentration of compound required for 50% inhibition, determined from a dose response curve.
# (§2) Compounds of the invention are tested for their antiproliferative effect on Ba/F3 cells expressing either wild type or the mutant forms of BCR-Abl (G250E, E255V, T315I, F317L, M351T) that confers resistance or diminished sensitivity to STI571. The antiproliferative effect of these compounds on the mutant-BCR-Abl expressing cells and on the non transformed cells were tested at 10, 3.3, 1.1 and 0.37 μM as described above (in media lacking IL3). The IC50 values of the compounds lacking toxicity on the untransformed cells were determined from the dose response curves obtained as describe above.
# [2] = target: T2, Rsk1 (Homo sapiens, UniProt Q15418); test: Upstate KinaseProfiler radio-enzymatic filter binding assay, Rsk1; assay type: biochemical; conditions: at a concentration of 10 μM; read-out: percentage inhibition of Rsk1
# T2 construct: purchased Upstate (KinaseProfiler panel)
# From the text: (§3) “Kinase Panel” is a list of kinases comprising Abl(human), Abl(T315I), JAK2, JAK3, ALK, JNK1α1, ALK4, KDR, Aurora-A, Lck, Blk, MAFK1, Bmx, MAPKAP-K2, BRK, MEK1, CaMKII(rat), Met, CDK1/cyclinB, p70S6K, CHK2, PAK2, CK1, PDGFRα, CK2, PDK1, c-kit, Pim-2, c-RAF, PKA(h), CSK, PKBα, cSrc, PKCα, DYRK2, Plk3, EGFR, ROCK-I, Fes, Ron, FGFR3, Ros, Flt3, SAPK2α, Fms, SGK, Fyn, SIK, GSK3β, Syk, IGF-IR, Tie-2, IKKβ, TrKB, IR, WNK3, IRAK4, ZAP-70, ITK, AMPK(rat), LIMK1, Rsk2, Ax1, LKB1, SAFK2β, BrSK2, Lyn (h), SAPK3, BTK, MAPKAP-K3, SAPK4, CaMKIV, MARK1, Snk, CDK2/cyclinA, MINK, SRPK1, CDK3/cyclinE, MKK4(m), TAK1, CDK5/p25, MKK6(h), TBK1, CDK6/cyclinD3, MLCK, TrkA, CDK7/cyclinH/MAT1, MRCKβ, TSSK1, CHK1, MSK1, Yes, CK1d, MST2, ZIPK, c-Kit (D816V), MuSK, DAPK2, NEK2, DDR2, NEK6, DMPK, PAK4, DRAK1, PAR-1Bα, EphA1, PDGFRβ, EphA2, Pim-1, EphA5, PKBβ, EphB2, PKCβI, EphB4, PKCδ, FGFR1, PKCη, FGFR2, PKCθ, FGFR4, PKD2, Fgr, PKG1β, Flt1, PRK2, Hck, PYK2, HIPK2, Ret, IKKα, RIPK2, IRR, ROCK-II(human), JNK2α2, Rse, JNK3, Rsk1(h), PI3 Kγ, PI3 Kδ and PI3-Kβ. […]
# (§4) Compounds of the invention are assessed for their ability to inhibit individual members of the kinase panel. […] The assay squares are transferred to a scintillation vial, 5 ml scintillation cocktail are added and ^32P incorporation (cpm) to the peptide substrate is quantified with a Beckman scintillation counter. […]
# [3] = target: T3, MKK6 (Homo sapiens, UniProt P52564); test: Upstate KinaseProfiler radio-enzymatic filter binding assay, MKK6; assay type: biochemical; conditions: at a concentration of 10 μM; read-out: percentage inhibition of MKK6
# T3 construct: purchased Upstate (KinaseProfiler panel)
# From the text: as §3, §4
# [4] = target: T4, JNK1α1 (Homo sapiens, UniProt P45983); test: Upstate KinaseProfiler radio-enzymatic filter binding assay, JNK1α1; assay type: biochemical; conditions: at a concentration of 10 μM; read-out: percentage inhibition of JNK1α1
# T4 construct: purchased Upstate (KinaseProfiler panel)
# Method: (§5) Compounds of the invention are assessed for their ability to inhibit individual members of the kinase panel. The compounds are tested in duplicates at a final concentration of 10 μM following this generic protocol, Note that the kinase buffer composition and the substrates vary for the different kinases included in the “Upstate KinaseProfiler™” panel. Kinase buffer (2.5 μL, 10x—containing MnCl2 when required), active kinase (0.001-0.01 Units; 2.5 μL), specific or Poly(Glu-4-Tyr) peptide (5-500 μM or 0.01 mg/ml) in kinase buffer and kinase buffer ([…]; 5 μL) are mixed in an eppendorf on ice. A Mg/ATP mix (10 μL; 67.5 (or 33.75) mM MgCl2, 450 (or 225) μM ATP and 1 μCi/μl [γ-^32P]-ATP (3000 Ci/mmol)) is added and the reaction is incubated at about 30° C. for about 10 minutes. The reaction mixture is spotted (20 μL) onto a 2 cm×2 cm P81 (phosphocellulose, for positively charged peptide substrates) or Whatman No, 1 (for Poly (Glu-4-Tyr) peptide substrate) paper square. The assay squares are washed 4 times, for 5 minutes each, with 0.75% phosphoric acid and washed once with acetone for 5 minutes. The assay squares are transferred to a scintillation vial, 5 ml scintillation cocktail are added and ^32P incorporation (cpm) to the peptide substrate is quantified with a Beckman scintillation counter. Percentage inhibition is calculated for each reaction.
# [5] = target: T5, wild type Bcr-abl (Homo sapiens, UniProt P00519); test: Antiproliferative effect on Ba/F3 cells expressing wild type Bcr-abl; assay type: cell-based
# T5 construct: BCR (fusion partner); expressed in transfected cells; host or cells: Ba/F3 (murine pro-B cells); the other entry of the earlier key: BCR (P11274, Breakpoint cluster region protein)
# Method: as §1, §2
# [6] = target: T6, c-RAF (Homo sapiens, UniProt P04049); test: Upstate KinaseProfiler radio-enzymatic filter binding assay, c-RAF; assay type: biochemical; conditions: at a concentration of 10 μM; read-out: percentage inhibition of c-RAF
# T6 construct: purchased Upstate (KinaseProfiler panel)
# Method: as §5
# [7] = target: T7, TrkB (Homo sapiens, UniProt Q16620); test: Upstate KinaseProfiler radio-enzymatic filter binding assay, TrkB; assay type: biochemical; conditions: at a concentration of 10 μM; read-out: percentage inhibition of TrkB
# T7 construct: purchased Upstate (KinaseProfiler panel)
# Method: as §5
# [8] = target: T8, Lck (Homo sapiens, UniProt P06239); test: Upstate KinaseProfiler radio-enzymatic filter binding assay, Lck; assay type: biochemical; conditions: at a concentration of 10 μM; read-out: percentage inhibition of Lck
# T8 construct: purchased Upstate (KinaseProfiler panel)
# Method: as §5
# [9] = target: T9, Fes (Homo sapiens, UniProt P07332); test: Upstate KinaseProfiler radio-enzymatic filter binding assay, Fes; assay type: biochemical; conditions: at a concentration of 10 μM; read-out: percentage inhibition of Fes
# T9 construct: purchased Upstate (KinaseProfiler panel)
# Method: as §5
# [10] = target: T10, SAPK2α (Homo sapiens, UniProt Q16539); test: Upstate KinaseProfiler radio-enzymatic filter binding assay, SAPK2α; assay type: biochemical; conditions: at a concentration of 10 μM; read-out: percentage inhibition of SAPK2α
# T10 construct: purchased Upstate (KinaseProfiler panel)
# Method: as §5
# [11] = target: T11, M351T Bcr-abl (Homo sapiens, UniProt P00519, M351T); test: Antiproliferative effect on Ba/F3 cells expressing M351T Bcr-abl; assay type: cell-based; conditions: M351T mutant
# T11 construct: BCR (fusion partner); expressed in transfected cells; host or cells: Ba/F3 (murine pro-B cells); the other entry of the earlier key: BCR (P11274, Breakpoint cluster region protein)
# Method: as §1, §2
# [12] = target: T12, Bmx (Homo sapiens, UniProt P51813); test: Upstate KinaseProfiler radio-enzymatic filter binding assay, Bmx; assay type: biochemical; conditions: at a concentration of 10 μM; read-out: percentage inhibition of Bmx
# T12 construct: purchased Upstate (KinaseProfiler panel)
# Method: as §5
# [13] = target: T13, Flt3 (Homo sapiens, UniProt P36888); test: Upstate KinaseProfiler radio-enzymatic filter binding assay, Flt3; assay type: biochemical; conditions: at a concentration of 10 μM; read-out: percentage inhibition of Flt3
# T13 construct: purchased Upstate (KinaseProfiler panel)
# Method: as §5
# [14] = target: T14, CSK (Homo sapiens, UniProt P41240); test: Upstate KinaseProfiler radio-enzymatic filter binding assay, CSK; assay type: biochemical; conditions: at a concentration of 10 μM; read-out: percentage inhibition of CSK
# T14 construct: purchased Upstate (KinaseProfiler panel)
# Method: as §5
# [15] = target: T15, p70S6K (Homo sapiens, UniProt P23443); test: Upstate KinaseProfiler radio-enzymatic filter binding assay, p70S6K; assay type: biochemical; conditions: at a concentration of 10 μM; read-out: percentage inhibition of p70S6K
# T15 construct: purchased Upstate (KinaseProfiler panel)
# Method: as §5
# [16] = target: T16, MKK4 (Mus musculus, UniProt P47809); test: Upstate KinaseProfiler radio-enzymatic filter binding assay, MKK4; assay type: biochemical; conditions: at a concentration of 10 μM; read-out: percentage inhibition of MKK4
# T16 construct: purchased Upstate (KinaseProfiler panel)
# From the text: as §3, §4
# [17] = target: T17, GSK3β (Homo sapiens, UniProt P49841); test: Upstate KinaseProfiler radio-enzymatic filter binding assay, GSK3β; assay type: biochemical; conditions: at a concentration of 10 μM; read-out: percentage inhibition of GSK3β
# T17 construct: purchased Upstate (KinaseProfiler panel)
# Method: as §5
# [18] = target: T18, PDGFRα (Homo sapiens, UniProt P16234); test: Upstate KinaseProfiler radio-enzymatic filter binding assay, PDGFRα; assay type: biochemical; conditions: at a concentration of 10 μM; read-out: percentage inhibition of PDGFRα
# T18 construct: purchased Upstate (KinaseProfiler panel)
# Method: as §5
# [19] = target: T19, T315I Bcr-abl (Homo sapiens, UniProt P00519, T315I); test: Antiproliferative effect on Ba/F3 cells expressing T315I Bcr-abl; assay type: cell-based; conditions: T315I mutant
# T19 construct: BCR (fusion partner); expressed in transfected cells; host or cells: Ba/F3 (murine pro-B cells); the other entry of the earlier key: BCR (P11274, Breakpoint cluster region protein)
# Method: as §1, §2
# [20] = target: T20, IR (Homo sapiens, UniProt P06213); test: Upstate KinaseProfiler radio-enzymatic filter binding assay, IR; assay type: biochemical; conditions: at a concentration of 10 μM; read-out: percentage inhibition of IR
# T20 construct: purchased Upstate (KinaseProfiler panel)
# Method: as §5
# [21] = target: T21, E255V Bcr-abl (Homo sapiens, UniProt P00519, E255V); test: Antiproliferative effect on Ba/F3 cells expressing E255V Bcr-abl; assay type: cell-based; conditions: E255V mutant
# T21 construct: BCR (fusion partner); expressed in transfected cells; host or cells: Ba/F3 (murine pro-B cells); the other entry of the earlier key: BCR (P11274, Breakpoint cluster region protein)
# Method: as §1, §2
# [22] = target: T22, Syk (Homo sapiens, UniProt P43405); test: Upstate KinaseProfiler radio-enzymatic filter binding assay, Syk; assay type: biochemical; conditions: at a concentration of 10 μM; read-out: percentage inhibition of Syk
# T22 construct: purchased Upstate (KinaseProfiler panel)
# Method: as §5
# [23] = target: T23, F317L Bcr-abl (Homo sapiens, UniProt P00519, F317L); test: Antiproliferative effect on Ba/F3 cells expressing F317L Bcr-abl; assay type: cell-based; conditions: F317L mutant
# T23 construct: BCR (fusion partner); expressed in transfected cells; host or cells: Ba/F3 (murine pro-B cells); the other entry of the earlier key: BCR (P11274, Breakpoint cluster region protein)
# Method: as §1, §2
# [24] = target: T24, SAPK2β (Homo sapiens, UniProt Q15759); test: Upstate KinaseProfiler radio-enzymatic filter binding assay, SAPK2β; assay type: biochemical; conditions: at a concentration of 10 μM; read-out: percentage inhibition of SAPK2β
# T24 construct: purchased Upstate (KinaseProfiler panel)
# Method: as §5
# [25] = target: T25, FGFR3 (Homo sapiens, UniProt P22607); test: Upstate KinaseProfiler radio-enzymatic filter binding assay, FGFR3; assay type: biochemical; conditions: at a concentration of 10 μM; read-out: percentage inhibition of FGFR3
# T25 construct: purchased Upstate (KinaseProfiler panel)
# Method: as §5
# [26] = target: T26, JNK2α2 (Homo sapiens, UniProt P45984); test: Upstate KinaseProfiler radio-enzymatic filter binding assay, JNK2α2; assay type: biochemical; conditions: at a concentration of 10 μM; read-out: percentage inhibition of JNK2α2
# T26 construct: purchased Upstate (KinaseProfiler panel)
# Method: as §5
# T14 sequence (P41240 whole entry): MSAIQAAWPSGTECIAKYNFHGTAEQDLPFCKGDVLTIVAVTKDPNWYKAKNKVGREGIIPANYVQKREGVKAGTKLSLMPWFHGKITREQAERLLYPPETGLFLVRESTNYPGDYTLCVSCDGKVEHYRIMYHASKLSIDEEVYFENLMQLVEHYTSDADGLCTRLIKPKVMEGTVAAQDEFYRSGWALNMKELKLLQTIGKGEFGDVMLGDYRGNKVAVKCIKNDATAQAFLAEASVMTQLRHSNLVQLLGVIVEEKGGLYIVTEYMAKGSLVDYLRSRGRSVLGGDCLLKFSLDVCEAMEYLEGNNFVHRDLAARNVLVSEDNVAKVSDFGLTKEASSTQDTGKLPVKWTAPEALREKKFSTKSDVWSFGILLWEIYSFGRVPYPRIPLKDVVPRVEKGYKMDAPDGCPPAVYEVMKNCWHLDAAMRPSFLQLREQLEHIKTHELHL
# T10 sequence (Q16539 whole entry): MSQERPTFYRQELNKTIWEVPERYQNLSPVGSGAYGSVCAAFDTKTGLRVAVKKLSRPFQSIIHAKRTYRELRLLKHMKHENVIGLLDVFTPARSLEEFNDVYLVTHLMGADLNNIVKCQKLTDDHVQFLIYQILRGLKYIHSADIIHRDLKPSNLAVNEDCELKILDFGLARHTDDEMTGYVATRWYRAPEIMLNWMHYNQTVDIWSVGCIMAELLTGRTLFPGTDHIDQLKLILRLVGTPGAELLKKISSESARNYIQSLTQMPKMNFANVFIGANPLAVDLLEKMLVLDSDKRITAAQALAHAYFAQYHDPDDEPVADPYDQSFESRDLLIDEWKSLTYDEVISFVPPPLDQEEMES
# T18 sequence (P16234 24-1089): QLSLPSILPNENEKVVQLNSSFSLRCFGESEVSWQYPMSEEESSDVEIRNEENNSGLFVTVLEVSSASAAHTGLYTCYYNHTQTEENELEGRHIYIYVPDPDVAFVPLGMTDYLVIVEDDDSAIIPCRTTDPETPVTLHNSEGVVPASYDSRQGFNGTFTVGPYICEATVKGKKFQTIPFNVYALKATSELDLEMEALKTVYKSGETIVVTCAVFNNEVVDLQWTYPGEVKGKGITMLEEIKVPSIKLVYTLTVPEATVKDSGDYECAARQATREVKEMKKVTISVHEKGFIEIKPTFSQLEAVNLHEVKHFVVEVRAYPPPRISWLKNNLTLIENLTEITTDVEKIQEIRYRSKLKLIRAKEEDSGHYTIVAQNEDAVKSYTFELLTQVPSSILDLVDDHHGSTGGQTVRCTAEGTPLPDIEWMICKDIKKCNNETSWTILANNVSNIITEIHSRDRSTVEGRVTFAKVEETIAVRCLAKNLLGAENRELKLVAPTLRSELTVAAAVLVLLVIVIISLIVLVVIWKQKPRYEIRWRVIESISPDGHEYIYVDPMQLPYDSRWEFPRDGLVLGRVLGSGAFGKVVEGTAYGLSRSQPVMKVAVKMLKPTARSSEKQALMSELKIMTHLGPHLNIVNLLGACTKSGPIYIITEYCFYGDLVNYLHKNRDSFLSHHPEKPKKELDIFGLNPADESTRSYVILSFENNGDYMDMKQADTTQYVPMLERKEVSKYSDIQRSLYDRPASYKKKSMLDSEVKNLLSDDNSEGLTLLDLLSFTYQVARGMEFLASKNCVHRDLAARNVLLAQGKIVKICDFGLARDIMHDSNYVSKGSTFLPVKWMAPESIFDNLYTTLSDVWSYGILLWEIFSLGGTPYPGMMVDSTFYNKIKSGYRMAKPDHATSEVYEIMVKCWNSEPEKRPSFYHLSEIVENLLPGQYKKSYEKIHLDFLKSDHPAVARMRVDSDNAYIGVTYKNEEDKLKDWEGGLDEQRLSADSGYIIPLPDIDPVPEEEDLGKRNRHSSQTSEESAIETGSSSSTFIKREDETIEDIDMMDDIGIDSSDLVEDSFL
# T4 sequence (P45983 1-384 isoform P45983-2): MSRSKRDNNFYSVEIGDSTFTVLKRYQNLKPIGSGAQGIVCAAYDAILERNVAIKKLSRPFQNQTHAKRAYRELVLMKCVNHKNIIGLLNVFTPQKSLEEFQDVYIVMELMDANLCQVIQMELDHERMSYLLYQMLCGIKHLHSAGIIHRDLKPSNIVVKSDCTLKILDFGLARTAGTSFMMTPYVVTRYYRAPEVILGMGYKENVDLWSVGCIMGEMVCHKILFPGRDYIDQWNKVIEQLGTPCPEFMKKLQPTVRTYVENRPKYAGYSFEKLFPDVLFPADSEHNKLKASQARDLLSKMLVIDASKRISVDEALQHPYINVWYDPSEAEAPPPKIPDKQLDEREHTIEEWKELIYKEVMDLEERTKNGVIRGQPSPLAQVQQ
# T16 sequence (P47809 whole entry): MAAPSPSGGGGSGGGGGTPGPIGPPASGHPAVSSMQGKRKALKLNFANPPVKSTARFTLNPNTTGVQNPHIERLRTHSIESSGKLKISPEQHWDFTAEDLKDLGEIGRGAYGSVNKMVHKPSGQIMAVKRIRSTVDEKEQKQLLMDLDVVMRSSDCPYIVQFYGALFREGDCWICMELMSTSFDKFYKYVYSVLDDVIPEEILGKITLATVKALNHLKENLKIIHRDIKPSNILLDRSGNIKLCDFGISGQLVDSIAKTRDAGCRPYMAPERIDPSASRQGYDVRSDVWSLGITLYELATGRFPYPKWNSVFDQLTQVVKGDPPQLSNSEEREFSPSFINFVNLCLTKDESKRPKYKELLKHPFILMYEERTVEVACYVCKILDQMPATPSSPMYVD
# T26 sequence (P45984 whole entry): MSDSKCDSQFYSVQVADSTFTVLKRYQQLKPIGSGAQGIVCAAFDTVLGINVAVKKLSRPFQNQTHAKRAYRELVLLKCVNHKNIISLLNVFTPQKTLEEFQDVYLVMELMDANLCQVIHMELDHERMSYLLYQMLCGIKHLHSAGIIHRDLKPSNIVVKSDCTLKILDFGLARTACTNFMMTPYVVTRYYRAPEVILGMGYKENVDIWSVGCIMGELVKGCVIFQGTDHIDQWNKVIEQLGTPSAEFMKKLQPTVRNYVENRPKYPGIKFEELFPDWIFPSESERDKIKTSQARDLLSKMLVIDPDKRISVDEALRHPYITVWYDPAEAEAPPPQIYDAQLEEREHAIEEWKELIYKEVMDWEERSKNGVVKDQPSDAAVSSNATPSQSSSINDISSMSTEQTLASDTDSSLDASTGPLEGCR
# T9 sequence (P07332 whole entry): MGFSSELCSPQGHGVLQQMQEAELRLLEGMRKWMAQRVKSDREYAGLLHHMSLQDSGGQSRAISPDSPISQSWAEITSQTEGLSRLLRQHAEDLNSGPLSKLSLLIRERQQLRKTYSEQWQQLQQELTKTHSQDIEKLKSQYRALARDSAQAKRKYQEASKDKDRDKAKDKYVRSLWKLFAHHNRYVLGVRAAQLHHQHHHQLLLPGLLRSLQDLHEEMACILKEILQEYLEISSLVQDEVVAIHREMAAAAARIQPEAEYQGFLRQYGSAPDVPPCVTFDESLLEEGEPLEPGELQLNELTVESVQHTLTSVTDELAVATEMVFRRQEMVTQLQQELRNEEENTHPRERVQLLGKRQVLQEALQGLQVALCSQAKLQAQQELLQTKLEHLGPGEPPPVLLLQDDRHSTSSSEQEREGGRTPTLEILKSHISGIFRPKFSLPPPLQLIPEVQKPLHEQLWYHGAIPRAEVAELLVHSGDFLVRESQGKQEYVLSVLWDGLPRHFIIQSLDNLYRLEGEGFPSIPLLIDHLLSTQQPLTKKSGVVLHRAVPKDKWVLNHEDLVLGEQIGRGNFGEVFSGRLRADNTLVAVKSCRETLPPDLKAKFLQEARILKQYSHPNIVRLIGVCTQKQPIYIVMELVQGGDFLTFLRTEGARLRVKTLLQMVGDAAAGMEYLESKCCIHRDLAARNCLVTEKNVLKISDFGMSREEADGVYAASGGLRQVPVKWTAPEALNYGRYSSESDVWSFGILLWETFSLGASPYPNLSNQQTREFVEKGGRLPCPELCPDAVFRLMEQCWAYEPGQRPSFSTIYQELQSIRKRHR
# T15 sequence (P23443 whole entry): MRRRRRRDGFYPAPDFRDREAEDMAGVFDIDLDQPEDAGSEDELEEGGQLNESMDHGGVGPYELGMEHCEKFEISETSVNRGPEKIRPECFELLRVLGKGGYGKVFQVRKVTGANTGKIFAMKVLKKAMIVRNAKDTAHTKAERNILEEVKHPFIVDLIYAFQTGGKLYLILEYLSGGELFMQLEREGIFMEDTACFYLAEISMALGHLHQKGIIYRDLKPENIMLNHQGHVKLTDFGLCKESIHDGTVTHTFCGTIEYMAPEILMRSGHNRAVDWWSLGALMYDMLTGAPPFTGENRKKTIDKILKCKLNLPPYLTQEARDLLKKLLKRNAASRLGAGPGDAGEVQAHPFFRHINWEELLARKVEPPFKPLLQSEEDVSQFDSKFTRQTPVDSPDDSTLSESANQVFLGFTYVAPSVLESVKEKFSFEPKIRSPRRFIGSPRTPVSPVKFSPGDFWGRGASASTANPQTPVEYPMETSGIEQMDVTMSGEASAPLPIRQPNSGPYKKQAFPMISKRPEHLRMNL
# T8 sequence (P06239 whole entry): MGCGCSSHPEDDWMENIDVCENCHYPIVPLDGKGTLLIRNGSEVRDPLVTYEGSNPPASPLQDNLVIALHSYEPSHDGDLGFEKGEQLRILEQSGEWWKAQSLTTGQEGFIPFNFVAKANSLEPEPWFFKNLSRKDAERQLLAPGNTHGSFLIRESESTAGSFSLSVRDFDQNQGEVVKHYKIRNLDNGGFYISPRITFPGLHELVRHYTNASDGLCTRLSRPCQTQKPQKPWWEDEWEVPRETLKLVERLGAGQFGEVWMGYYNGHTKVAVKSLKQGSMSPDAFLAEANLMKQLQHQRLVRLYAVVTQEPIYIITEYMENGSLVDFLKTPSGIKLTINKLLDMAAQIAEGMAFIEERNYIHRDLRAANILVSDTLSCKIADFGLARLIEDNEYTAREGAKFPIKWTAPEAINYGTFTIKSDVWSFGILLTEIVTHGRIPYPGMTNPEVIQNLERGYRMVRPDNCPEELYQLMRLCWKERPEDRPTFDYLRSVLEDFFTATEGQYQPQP
smiles,measurement,setting,value
"Cc1ccc(Nc2ncc3nc(-c4cc(NC(=O)c5cccc(C(F)(F)F)c5)ccc4C)c(=O)n(C)c3n2)cn1 [Example 2, N-[4-methyl-3-(8-methyl-2-(6-methyl-pyridin-3-ylamino)7-oxo-7,8-dihydropteridin-6-yl)-phenyl]-3-trifluoromethyl-benzamide]",pIC50,[1],7.64
same,inhibition at 10 µM,[2],90%
same,inhibition at 10 µM,[3],97%
same,inhibition at 10 µM,[4],98%
same,pIC50,[5],> 9.30
same,inhibition at 10 µM,[6],100%
same,inhibition at 10 µM,[7],96%
same,inhibition at 10 µM,[8],98%
same,inhibition at 10 µM,[9],100%
same,inhibition at 10 µM,[10],95%
same,pIC50,[11],> 9.30
same,inhibition at 10 µM,[12],100%
same,inhibition at 10 µM,[13],64%
same,inhibition at 10 µM,[14],98%
same,inhibition at 10 µM,[15],98%
same,inhibition at 10 µM,[16],92%
same,inhibition at 10 µM,[17],53%
same,inhibition at 10 µM,[18],76%
same,pIC50,[19],7.26
same,inhibition at 10 µM,[20],60%
same,pIC50,[21],7.89
same,inhibition at 10 µM,[22],76%
same,pIC50,[23],> 9.30
same,inhibition at 10 µM,[24],99%
same,inhibition at 10 µM,[25],98%
same,inhibition at 10 µM,[26],99%
